# Like-named read-outs stand apart in the source and are kept apart here.
# How the values were obtained:
# rat liver = assay: In situ hepatic perfusion of four lignans; assay type: in vivo; conditions: hepatic perfusion 60 min, 10 μM, n = 3
# Experimental: (§1) In situ liver perfusion was performed similarly as the method described previously (Uraki et al., [2016]). […] The perfusate consisted of Krebs–Hensleit buffer (pH 7.4) containing sodium taurocholate (4.75 mg/L), 1% bovine serum albumin, and glucose (1.2 g/L) was oxygenated using carbogen, 95% O2/5% CO2. The perfusate at 37°C was infused into the portal vein at a flow rate of 30 mL/min in a recirculatory manner. After 10-min equilibration, four schisandra lignans were added to the reservoir (final concentration of 10 μM). Perfusate (0.5 mL) and bile samples were collected at 0, 10, 20, 30, 40, 50, and 60 min after the addition of lignans. The same volume of blank perfusion buffer was immediately added to the reservoir after collection of the perfusate samples. After hepatic perfusion, rat was sacrificed and liver was removed, blotted dry, and weighed.
# [1] = In situ hepatic perfusion of four lignans; assay type: in vivo, rat; conditions: Sprague-Dawley, rat, perfusate, perfusate AUC(0−1h), n = 3
# Experimental: as §1
# [2] = Identification of CYP450 isozymes in lignan metabolism, rat liver microsomes (no inhibitor / overall); assay type: in vitro ADME; conditions: rat, 5 μM, pH 7.4
# Experimental: (§2) The CYP450s involved in the metabolism of schisandrin, schisantherin A, deoxyshisandrin and γ-schisandrin in rat or human liver microsomes were confirmed by comparison of the metabolism ratio before and after the addition of selective inhibitors to CYP450 isozymes. […] The supernate was injected to HPLC-MS for analysis of the four lignans.
# [3] = Identification of CYP450 isozymes in lignan metabolism, human liver microsomes (no inhibitor); assay type: in vitro ADME; conditions: human, 5 μM, pH 7.4
# Experimental: as §2
# [4] = Pharmacokinetics of four lignans in rats after oral SC alcoholic extract; assay type: in vivo, rat; conditions: for AUC(0-t) / Cmax / half-life / CL/F / MRT last / Tmax: Sprague-Dawley, rat, plasma, po, 1.5 g/kg/day, oral SC alcoholic extract 1.5 g/kg/day for 4 days, n = 5; for CL/F: read-out: CLz/F (converted); for MRT last: read-out: MRT(0−t); for Tmax: read-out: Tmax
# Experimental: The pharmacokinetic profiles of four lignans were studied in ALI rat after multiple oral administrations of SC alcoholic extract at dose of 1.5 g/kg/day. After the ALI rat was established, SC alcoholic extract suspended in 0.5% sodium carboxymethyl cellulose was given to ALI rats and the control via oral gavage once a day for 4 consecutive days. Before the last dosing, rats were fasted for 12 h while water was taken freely. Blood samples were collected at 0, 0.25, 0.5, 1, 2, 3, 4, 6, 8, 12, 24, 36, and 48 h after the last dosing. A cannula was surgically placed into the jugular vein for collection of blood samples (about 0.1 mL) and blood loss compensation using sterile isotonic saline in the pharmacokinetic study. Plasma was separated by centrifugation and stored at −20°C until analysis. Plasma concentrations of the four lignans were quantified using HPLC-MS analysis developed according to the reported method (Wang et al., [2008]).
# Data fitting and pharmacokinetic parameter calculations were carried out using the Winnolin software. Non-compartmental analysis was used to calculate the pharmacokinetic parameters. Parameters, such as AUC and MRT, were calculated using statistical moment method.
# [5] = system: rat intestine (jejunum segment); assay: In situ intestinal perfusion of four lignans; assay type: in vivo; conditions: for Perfusate (Percent of the initial dose) / Plasma (Percent of the initial dose) / Intestine (Percent of the initial dose) / Pblood / Plumen: 50 μM, n = 3; for Perfusate (Percent of the initial dose): intestinal perfusion 60 min; for Plasma (Percent of the initial dose) / Intestine (Percent of the initial dose): intestinal perfusion; for Plasma (Percent of the initial dose): mesenteric vein blood
# Experimental: The surgical procedures of intestinal perfusion were conducted according to those published reports (Savina et al., [1981]). Hank's balanced salt solution (HBSS, pH 7.4) with four schisandra lignans (50 μM) at 37°C was infused into the jejunum segment at rate of 0.3 mL/min. Phenol Red (50 μM) was added to serve as a nonabsorbable marker for measuring water flux. Blood samples from mesenteric vein and perfusate were collected at 5-min interval. The plasma separated by centrifugation and perfusate was stored at −20°C until HPLC-MS analysis.
# The permeability of four lignans across the rat intestine was calculated based on the disappearance of parent drug from the lumen (Plumen) as well as the appearance of the drug in blood (Pblood) using the following equations (Singhal et al., [1998]):
# (1) Plumen = −Q/2πrlLnCout/Cin
# (1) Pblood = ΔMB/Δt/2πrl{C}
# where r is the radius of the perfused intestinal lumen; l is the length of the segment; Q is the flow rate of perfusate; Cin is the concentration of drug at the start of perfusion; and Cout is the steady-state concentration of drug exiting the lumen. ΔMB/Δt is the rate of drug appearance in mesenteric blood; and {C} is the logarithmic mean concentration of drug in the lumen.
# [6] = Transport across Caco-2 cell monolayer; assay type: in vitro ADME; conditions: human, Caco-2
# Experimental: Caco-2 cell (passage 38) was used in the transport experiments. Cells were seeded on polycarbonate filters (12 mm diameter, pore size […]) at 1 × 10^5/cm^2. The cell monolayer was formed 21 days post seeding when the transepithelial electrical resistance (TEER) was above 1,000 Ω• cm^2. Three concentration levels (5, 10, and 50 μM) were set for the four schisandra lignans in the study. After preincubation for 1 h at 37°C, the solution of the four lignans was respectively added to the apical (0.4 mL) or basolateral (0.6 mL) chamber for absorptive (AP → BL) and secretive (BL → AP) permeability test. At the specified timepoints (0.5, 1, 1.5 and 2 h), 50 μL samples (n = 3) were withdrawn from receiver chamber, and meanwhile, 50 μL fresh buffer was added. The four lignans were determined by HPLC-MS method.
# The efflux rate (ER) was calculated by the formula ER = Papp (BL → AP)/Papp(AP → BL).
structure (smiles),measurement,setting,value
"COc1cc2c(c(OC)c1OC)-c1c(cc3c(c1OC)OCO3)C[C@H](C)[C@H](C)C2 [γ-Schisandrin, γ-schisandrin]",Total amount of analyte in bile,rat liver; CCl4-intoxicated rats,1.19 ± 0.28 µg
same,Total amount of analyte in liver,rat liver; CCl4-intoxicated rats,14.25 ± 1.36 µg
same,Total amount of analyte in bile,rat liver; Control rats,1.37 ± 0.14 µg
same,Total amount of analyte in liver,rat liver; Control rats,11.10 ± 1.31 µg
same,AUC at 10 μM,"[1]; pH 7.4, CCl4-intoxicated rats",3740 ± 70 ng·h/mL
same,AUC at 10 μM,"[1]; pH 7.4, Control rats",3190 ± 70 ng·h/mL
same,Metabolism rate,[2],79.6 ± 6.5 nmol/min/mg
same,Metabolism rate,[3],194.1 ± 12.9 nmol/min/mg
same,Reduction of systemic clearance (CLz/F),[4]; CCl4 intoxicated rats vs control rats,~54%
same,AUC(0-t),[4]; CCl4-intoxicated rats,11600 ± 3090 ng·h/mL
same,Cmax,[4]; CCl4-intoxicated rats,628 ± 164 ng/mL
same,half-life,[4]; CCl4-intoxicated rats,14.5 ± 5.05 h
same,CL/F,[4]; CCl4-intoxicated rats,25.2 mL/min/kg
same,MRT last,[4]; CCl4-intoxicated rats,15.9 ± 1.24 h
same,Tmax,[4]; CCl4-intoxicated rats,4.2 ± 1.79 h
same,AUC(0-t),[4]; Control (normal) rats,5220 ± 1430 ng·h/mL
same,Cmax,[4]; Control (normal) rats,182 ± 103 ng/mL
same,half-life,[4]; Control (normal) rats,15.4 ± 2.52 h
same,CL/F,[4]; Control (normal) rats,54.3 mL/min/kg
same,MRT last,[4]; Control (normal) rats,16.5 ± 0.94 h
same,Tmax,[4]; Control (normal) rats,6.4 ± 0.89 h
same,Perfusate (Percent of the initial dose),[5]; CCl4-intoxicated rats,91.92 ± 1.69% of the initial dose
same,Plasma (Percent of the initial dose),[5]; CCl4-intoxicated rats,0.82 ± 0.06% of the initial dose
same,Intestine (Percent of the initial dose),[5]; CCl4-intoxicated rats,1.87 ± 0.20% of the initial dose
same,Pblood,[5]; CCl4-intoxicated rats,0.066 ± 0.018 × 10^−4 cm/s
same,Plumen,[5]; CCl4-intoxicated rats,2.540 ± 0.423 × 10^−4 cm/s
same,Perfusate (Percent of the initial dose),[5]; Control rats,92.57 ± 1.67% of the initial dose
same,Plasma (Percent of the initial dose),[5]; Control rats,0.84 ± 0.09% of the initial dose
same,Intestine (Percent of the initial dose),[5]; Control rats,1.66 ± 0.27% of the initial dose
same,Pblood,[5]; Control rats,0.052 ± 0.009 × 10^−4 cm/s
same,Plumen,[5]; Control rats,2.543 ± 0.174 × 10^−4 cm/s
same,Increase of remaining amount in perfusate,"[5]; intestinal autoperfusion (60 min), CCl4-treated rats vs control",not changed
same,"Papp A→B at 2 h, 5 μM",[6]; 5 μM,1.17 ± 0.16 ×10⁻⁶ cm/s
same,"Papp B→A at 2 h, 5 μM",[6]; 5 μM,1.32 ± 0.14 ×10⁻⁶ cm/s
same,"efflux ratio at 2 h, 5 μM","[6]; 5 μM, ER = Papp (BL → AP)/Papp(AP → BL)",1.13
same,"Papp A→B at 2 h, 10 μM",[6]; 10 μM,1.18 ± 0.09 ×10⁻⁶ cm/s
same,"Papp B→A at 2 h, 10 μM",[6]; 10 μM,1.34 ± 0.11 ×10⁻⁶ cm/s
same,"efflux ratio at 2 h, 10 μM","[6]; 10 μM, ER = Papp (BL → AP)/Papp(AP → BL)",1.14
same,"Papp A→B at 2 h, 50 μM",[6]; 50 μM,1.22 ± 0.16 ×10⁻⁶ cm/s
same,"Papp B→A at 2 h, 50 μM",[6]; 50 μM,1.32 ± 0.2 ×10⁻⁶ cm/s
same,"efflux ratio at 2 h, 50 μM","[6]; 50 μM, ER = Papp (BL → AP)/Papp(AP → BL)",1.08

# — PMC5861220, “The Cytochrome P450-Mediated Metabolism Alternation of Four Effective Lignans From Schisandra chinensis in Carbon Tetrachloride-Intoxicated Rats and Patients With Advanced Hepatocellular Carcinoma” (Frontiers in Pharmacology, 2018)
